Measured values taken from PMC9866191, “Novel 9-Benzylaminoacridine Derivatives as Dual Inhibitors of Phosphodiesterase 5 and Topoisomerase II for the Treatment of Colon Cancer” (Molecules, 2023).

Tests used:
CCRF-CEM = experiment: NCI-60 one-dose screen; type: cell-based; conditions: Homo sapiens, Leukemia panel, single dose 10^−5 M, read-out: Growth inhibition %
786-0 = experiment: NCI-60 one-dose screen; type: cell-based; conditions: Homo sapiens; 786-0, Renal Cancer panel; single dose 10^−5 M; read-out: Growth inhibition %
CAKI-1 = experiment: NCI-60 one-dose screen; type: cell-based; conditions: Homo sapiens; CAKI-1, Renal Cancer panel; single dose 10^−5 M; read-out: Growth inhibition %
DU-145 = experiment: NCI-60 one-dose screen; type: cell-based; conditions: Homo sapiens; DU-145, Prostate Cancer panel; single dose 10^−5 M; read-out: Growth inhibition %
HCT-15 = experiment: NCI-60 one-dose screen; type: cell-based; conditions: Homo sapiens; HCT-15, Colon Cancer panel; single dose 10^−5 M; read-out: Growth inhibition %
HL-60(TB) = experiment: NCI-60 one-dose screen; type: cell-based; conditions: Homo sapiens, Leukemia panel, single dose 10^−5 M, read-out: Growth inhibition %
HS 578T = experiment: NCI-60 one-dose screen; type: cell-based; conditions: Homo sapiens, Breast Cancer panel, single dose 10^−5 M, read-out: Growth inhibition %
HT29 = experiment: NCI-60 one-dose screen; type: cell-based; conditions: Homo sapiens, HT-29; HT29, Colon Cancer panel; single dose 10^−5 M; read-out: Growth inhibition %
KM12 = experiment: NCI-60 one-dose screen; type: cell-based; conditions: Homo sapiens; KM12, Colon Cancer panel; single dose 10^−5 M; read-out: Growth inhibition %
MCF7 = experiment: NCI-60 one-dose screen; type: cell-based; conditions: Homo sapiens; MCF7, Breast Cancer panel; single dose 10^−5 M; read-out: Growth inhibition %
MDA-MB-435 = experiment: NCI-60 one-dose screen; type: cell-based; conditions: Homo sapiens; MDA-MB-435, Melanoma panel; single dose 10^−5 M; read-out: Growth inhibition %
MDA-MB-468 = experiment: NCI-60 one-dose screen; type: cell-based; conditions: Homo sapiens; MDA-MB-468, Breast Cancer panel; single dose 10^−5 M; read-out: Growth inhibition %
NCI-H322M = experiment: NCI-60 one-dose screen; type: cell-based; conditions: Homo sapiens, Non-small cell lung panel, single dose 10^−5 M, read-out: Growth inhibition %
NCI/ADR-RES = experiment: NCI-60 one-dose screen; type: cell-based; conditions: Homo sapiens, Ovarian Cancer panel, single dose 10^−5 M, read-out: Growth inhibition %
OVCAR-3 = experiment: NCI-60 one-dose screen; type: cell-based; conditions: Homo sapiens; OVCAR-3, Ovarian Cancer panel; single dose 10^−5 M; read-out: Growth inhibition %
OVCAR-5 = experiment: NCI-60 one-dose screen; type: cell-based; conditions: Homo sapiens; OVCAR-5, Ovarian Cancer panel; single dose 10^−5 M; read-out: Growth inhibition %
PC-3 = experiment: NCI-60 one-dose screen; type: cell-based; conditions: Homo sapiens; PC-3, Prostate Cancer panel; single dose 10^−5 M; read-out: Growth inhibition %
RPMI-8226 = experiment: NCI-60 one-dose screen; type: cell-based; conditions: Homo sapiens; RPMI-8226, Leukemia panel; single dose 10^−5 M; read-out: Growth inhibition %
SF-295 = experiment: NCI-60 one-dose screen; type: cell-based; conditions: Homo sapiens; SF-295, CNS Cancer panel; single dose 10^−5 M; read-out: Growth inhibition %
SK-MEL-28 = experiment: NCI-60 one-dose screen; type: cell-based; conditions: Homo sapiens; SK-MEL-28, Melanoma panel; single dose 10^−5 M; read-out: Growth inhibition %
SK-MEL-2 = experiment: NCI-60 one-dose screen; type: cell-based; conditions: Homo sapiens; SK-MEL-2, Melanoma panel; single dose 10^−5 M; read-out: Growth inhibition %
SNB-19 = experiment: NCI-60 one-dose screen; type: cell-based; conditions: Homo sapiens; SNB-19, CNS Cancer panel; single dose 10^−5 M; read-out: Growth inhibition %
SR = experiment: NCI-60 one-dose screen; type: cell-based; conditions: Homo sapiens, Leukemia panel, single dose 10^−5 M, read-out: Growth inhibition %
T-47D = experiment: NCI-60 one-dose screen; type: cell-based; conditions: Homo sapiens, T47D, Breast Cancer panel, single dose 10^−5 M, read-out: Growth inhibition %
TK-10 = experiment: NCI-60 one-dose screen; type: cell-based; conditions: Homo sapiens; TK-10, Renal Cancer panel; single dose 10^−5 M; read-out: Growth inhibition %
UACC-62 = experiment: NCI-60 one-dose screen; type: cell-based; conditions: Homo sapiens; UACC-62, Melanoma panel; single dose 10^−5 M; read-out: Growth inhibition %
SF-268 = experiment: NCI-60 one-dose screen; type: cell-based; conditions: Homo sapiens; SF-268, CNS Cancer panel; single dose 10^−5 M; read-out: Growth inhibition %
LOX IMVI = experiment: NCI-60 one-dose screen; type: cell-based; conditions: Homo sapiens, Melanoma panel, single dose 10^−5 M, read-out: Growth inhibition %
IGROV1 = experiment: NCI-60 one-dose screen; type: cell-based; conditions: Homo sapiens, IGROV-1; IGROV1, Ovarian Cancer panel; single dose 10^−5 M; read-out: Growth inhibition %
CCD-966SK = experiment: MTT cell proliferation assay, CCD-966SK; conditions: CCD966SK skin fibroblast; 10 µM; 72 h MTT

COc1ccc(CNc2c3ccccc3nc3ccc(OC)cc23)cc1 [Compound 27, (2-Methoxyacridin-9-yl)-(4-methoxybenzyl)-amine]
inhibition at 10 µM (CCRF-CEM): 80.6%
inhibition at 10 µM (786-0): 85%
inhibition at 10 µM (CAKI-1): 80.1%
inhibition at 10 µM (DU-145): 80%
inhibition at 10 µM (HCT-15): 94.7%
inhibition at 10 µM (HL-60(TB)): 121%
inhibition at 10 µM (HS 578T): 74.1%
inhibition at 10 µM (HT29): 103%
inhibition at 10 µM (KM12): 72.4%
inhibition at 10 µM (MCF7): 130%
inhibition at 10 µM (MDA-MB-435): 81%
inhibition at 10 µM (MDA-MB-468): 115%
inhibition at 10 µM (NCI-H322M): 76.5%
inhibition at 10 µM (NCI/ADR-RES): 83.8%
inhibition at 10 µM (OVCAR-3): 59.6%
inhibition at 10 µM (OVCAR-5): 69.3%
inhibition at 10 µM (PC-3): 94.5%
inhibition at 10 µM (RPMI-8226): 148%
inhibition at 10 µM (SF-295): 80.6%
inhibition at 10 µM (SK-MEL-28): 58.7%
inhibition at 10 µM (SK-MEL-2): 59.1%
inhibition at 10 µM (SNB-19): 77.3%
inhibition at 10 µM (SR): 116%
inhibition at 10 µM (T-47D): 65.8%
inhibition at 10 µM (TK-10): 66.4%
inhibition at 10 µM (UACC-62): 57.4%
inhibition at 10 µM (SF-268): 59.8%
inhibition at 10 µM (LOX IMVI): 175%
inhibition at 10 µM (IGROV1): 88.8%
% Inhibition at 10 µM (CCD-966SK): 19.04 ± 3.94%

COc1ccc(CNc2c3ccccc3nc3ccccc23)cc1 [Compound 7, Acridin-9-yl-(4-methoxybenzyl)-amine]
inhibition at 10 µM (CCRF-CEM): 61%
inhibition at 10 µM (786-0): 67.6%
inhibition at 10 µM (CAKI-1): 70.7%
inhibition at 10 µM (DU-145): 52%
inhibition at 10 µM (HCT-15): 78%
inhibition at 10 µM (HL-60(TB)): 57%
inhibition at 10 µM (HS 578T): 42%
inhibition at 10 µM (HT29): 80.7%
inhibition at 10 µM (KM12): 66.8%
inhibition at 10 µM (MCF7): 87.4%
inhibition at 10 µM (MDA-MB-435): 59.8%
inhibition at 10 µM (MDA-MB-468): 72.9%
inhibition at 10 µM (NCI-H322M): 52.9%
inhibition at 10 µM (NCI/ADR-RES): 61.2%
inhibition at 10 µM (OVCAR-3): 51.9%
inhibition at 10 µM (OVCAR-5): 53.6%
inhibition at 10 µM (PC-3): 66%
inhibition at 10 µM (RPMI-8226): 84.2%
inhibition at 10 µM (SF-295): 60.9%
inhibition at 10 µM (SK-MEL-28): 20.4%
inhibition at 10 µM (SK-MEL-2): 39.9%
inhibition at 10 µM (SNB-19): 66%
inhibition at 10 µM (SR): 93%
inhibition at 10 µM (T-47D): 55.1%
inhibition at 10 µM (TK-10): 50.5%
inhibition at 10 µM (UACC-62): 44.2%
inhibition at 10 µM (SF-268): 36.6%
inhibition at 10 µM (LOX IMVI): 79.1%
inhibition at 10 µM (IGROV1): 72.8%
% Inhibition at 10 µM (CCD-966SK): 13.09 ± 2.52%

COc1ccc(CNc2c3ccccc3nc3ccccc23)c(OC)c1 [Compound 17, Acridin-9-yl-(2,4-dimethoxybenzyl)-amine]
inhibition at 10 µM (CCRF-CEM): 44.6%
inhibition at 10 µM (786-0): 60.9%
inhibition at 10 µM (CAKI-1): 63.8%
inhibition at 10 µM (DU-145): 50.6%
inhibition at 10 µM (HCT-15): 74%
inhibition at 10 µM (HL-60(TB)): 63.1%
inhibition at 10 µM (HS 578T): 31.1%
inhibition at 10 µM (HT29): 86.2%
inhibition at 10 µM (KM12): 45.7%
inhibition at 10 µM (MCF7): 85.5%
inhibition at 10 µM (MDA-MB-435): 61.3%
inhibition at 10 µM (MDA-MB-468): 95.2%
inhibition at 10 µM (NCI-H322M): 60%
inhibition at 10 µM (NCI/ADR-RES): 64.4%
inhibition at 10 µM (OVCAR-3): 30.8%
inhibition at 10 µM (OVCAR-5): 49.7%
inhibition at 10 µM (PC-3): 52.9%
inhibition at 10 µM (RPMI-8226): 65.1%
inhibition at 10 µM (SF-295): 63.7%
inhibition at 10 µM (SK-MEL-28): 30.7%
inhibition at 10 µM (SK-MEL-2): 5.98%
inhibition at 10 µM (SNB-19): 66.5%
inhibition at 10 µM (SR): 81.9%
inhibition at 10 µM (T-47D): 47.1%
inhibition at 10 µM (TK-10): 45.6%
inhibition at 10 µM (UACC-62): 45.5%
inhibition at 10 µM (SF-268): 34.3%
inhibition at 10 µM (LOX IMVI): 82.3%
inhibition at 10 µM (IGROV1): 77.5%
% Inhibition at 10 µM (CCD-966SK): 35.11 ± 0.42%

COc1ccc(CNc2c3ccccc3nc3ccccc23)cc1F [Compound 19, Acridin-9-yl-(3-fluoro-4-methoxybenzyl)-amine]
inhibition at 10 µM (CCRF-CEM): 70.4%
inhibition at 10 µM (786-0): 74%
inhibition at 10 µM (CAKI-1): 78.7%
inhibition at 10 µM (DU-145): 72.8%
inhibition at 10 µM (HCT-15): 89%
inhibition at 10 µM (HL-60(TB)): 87.1%
inhibition at 10 µM (HS 578T): 54.5%
inhibition at 10 µM (HT29): 87.8%
inhibition at 10 µM (KM12): 67.2%
inhibition at 10 µM (MCF7): 97.7%
inhibition at 10 µM (MDA-MB-435): 92.4%
inhibition at 10 µM (MDA-MB-468): 119%
inhibition at 10 µM (NCI-H322M): 68.3%
inhibition at 10 µM (NCI/ADR-RES): 79.2%
inhibition at 10 µM (OVCAR-3): 47.8%
inhibition at 10 µM (OVCAR-5): 63.1%
inhibition at 10 µM (PC-3): 69.5%
inhibition at 10 µM (RPMI-8226): 106%
inhibition at 10 µM (SF-295): 79.9%
inhibition at 10 µM (SK-MEL-28): 53.3%
inhibition at 10 µM (SK-MEL-2): 54.9%
inhibition at 10 µM (SNB-19): 72%
inhibition at 10 µM (SR): 95.2%
inhibition at 10 µM (T-47D): 65%
inhibition at 10 µM (TK-10): 63.9%
inhibition at 10 µM (UACC-62): 57.5%
inhibition at 10 µM (SF-268): 50.9%
inhibition at 10 µM (LOX IMVI): 98.8%
inhibition at 10 µM (IGROV1): 84.2%
% Inhibition at 10 µM (CCD-966SK): 41.77 ± 0.99%
